Where two headings read alike, the source gives them in different places.
Assays:
IL-6 = IL-6 test procedure (IL-6 ELISA of media) in Ad5-wt-ERα infected HAECT-1 cells; assay type: cell-based, human; conditions: for IC50: read-out: Interleukin-6 IC50; for Emax: read-out: Interleukin-6 Efficacy (%)
Procedure: (§1) After four hours, cells were washed with EBM-BSA and incubated overnight in the same medium. Following overnight incubation, cells were washed with EBM-BSA and infected for 2 hours with 6 mL of a 1:10 dilution of Ad5-3x(NFκB).Luc virus (Adenovirus luciferase expression vector driven by 3 repeats of the MHC NFκb site 5′ to the thymidine kinase promoter) in EBM-BSA. After two hours, cells were washed and incubated at 34° C. for 1 hour. […] Control (no ER infection) cells were processed as above without Ad5-wt-hERα virus infection.
(§2) ERα infected HAECT-1 cells or control cells were thawed, diluted 42× in warm EBM-BSA, plated into 96-well plates at 0.1 mL/well and incubated for 4 hours at 34° C. Test compounds were added to the cells as 2× stocks in EBM-BSA containing 2 ng/mL IL-1β (R&D Systems) and the 96-well plates were returned to the incubator (34° C.). After 15-20 hours, 100 μL aliquots of media were removed from the cells and assayed for IL-6 content using a BioSource human IL-6 ELISA Kit. Cells were subsequently washed with 300 μL of Dulbecco's phosphate buffered saline and lysed in 50 μL of Cell Culture Lysis Reagent (Promega). Luciferase was determined on a Wallac Victor^2 Luminometer (Gaithersburg, Md.) using 10 μL of lysate and mixing with 100 μL of Promega Luciferase Assay reagent. Creatine kinase was determined from the rate of increase in A340 following addition of 100 μL of CK assay reagent (Sigma, cat. No 47-10) to the remainder of the cell lysate.
(§3) For IC50 and EC50 calculations, mean IL-6, luciferase or CK values versus log10 of the compound concentration were fitted to a four parameter logistic equation. The IC50/EC50 value, ‘Hill slope’, upper and lower limits of the curve were iteratively estimated.

creatine kinase = experiment: Creatine kinase (CK) test procedure in Ad5-wt-ERα infected HAECT-1 cells; assay type: cell-based, human; conditions: Ad5-wt-ERα infected HAECT-1 cells; for EC50: read-out: Creatin Kinase EC50; for Emax / Emax at 10 µM: read-out: Creatin Kinase Efficacy (%)
Procedure: as §1, §2, §3

ER/NF-κB = ER/NF-κB luciferase reporter in Ad5-wt-ERα infected HAECT-1 cells; assay type: cell-based, human; conditions: Homo sapiens, HAECT1, IL-1β; for Emax: read-out: ER/NFκB Efficacy (%)*; for IC50: read-out: ER/NFκB IC50
Procedure: as §1, §2, §3

Row | Compound | EC50 (creatine kinase; Homo sapiens, HAECT1) | IC50 (ER/NF-κB) | melting point | Emax (creatine kinase; Homo sapiens, HAECT1) | Emax (ER/NF-κB) | Emax at 10 µM (creatine kinase; Homo sapiens, HAECT1) | also measured
1 | C[C@H]1c2ccccc2-c2ccc(Cl)cc2N1S(=O)(=O)c1cccc(O)c1 [Example 120, 3-{[(6S)-3-Chloro-6-mthylphenanthridin-5(6H)-yl]sulfonyl}ph nol] | – | – | – | – | – | – | Interleukin-6 Efficacy (%) (IL-6; IL-1β): 153%; IC50 (IL-6; IL-1β): 6 nM; Creatin Kinase Efficacy (%) (creatine kinase): 10%
2 | CC1c2ccc(F)cc2-c2ccc(F)cc2N1S(=O)(=O)c1ccc(O)cc1 (stereo not drawn) [Example 114, 4-[(3,9-Difluoro-6-mthylphenanthridin-5(6H)-yl)sulfonyl]ph nol] | – | – | – | – | – | – | Interleukin-6 Efficacy (%) (IL-6; IL-1β): 98%; IC50 (IL-6; IL-1β): 78 nM; Creatin Kinase Efficacy (%) (creatine kinase): 23%
3 | C[C@@H]1c2cc(F)ccc2-c2ccc(F)cc2N1S(=O)(=O)c1ccc(O)cc1 (single isomer, unassigned) [Example 99] | – | – | – | – | – | – | Emax (IL-6; Homo sapiens, HAECT1, IL-1β): 139%; IC50 (IL-6; Homo sapiens, HAECT1, IL-1β): 341 nM
4 | C[C@@H]1c2cc(F)ccc2-c2ccc(F)cc2N1S(=O)(=O)c1cccc(O)c1 (single isomer, unassigned) [Example 101] | – | – | – | – | – | – | Emax (IL-6; Homo sapiens, HAECT1, IL-1β): 74%; IC50 (IL-6; Homo sapiens, HAECT1, IL-1β): 1280 nM
5 | C[C@H]1c2cc(F)ccc2-c2ccc(F)cc2N1S(=O)(=O)c1ccc(O)cc1 (single isomer, unassigned) [Example 100] | – | – | – | – | – | – | Emax (IL-6; Homo sapiens, HAECT1, IL-1β): 196%; IC50 (IL-6; Homo sapiens, HAECT1, IL-1β): 6.9 nM
6 | C[C@H]1c2cc(F)ccc2-c2ccc(F)cc2N1S(=O)(=O)c1cccc(O)c1 (single isomer, unassigned) [Example 102] | – | – | – | – | – | – | Emax (IL-6; Homo sapiens, HAECT1, IL-1β): 156%; IC50 (IL-6; Homo sapiens, HAECT1, IL-1β): 5.4 nM
7 | CCC(=O)Oc1ccc(S(=O)(=O)N2c3ccccc3-c3ccc(F)cc3C2CC)cc1 (stereo not drawn) [Example 54, 4-[(6-Ethyl-8-fluorophenanthridin-5(6H)-yl)sulfonyl]phenyl propionate] | 839 nM | 423 nM | 111 to 112 °C | 24% | 87% | – | –
8 | C[C@@H]1c2ccccc2-c2ccc(Cl)cc2N1S(=O)(=O)c1ccc(O)cc1 [Example 122, 4-{[(6R)-3-Chloro-6-methylphenanthridin-5(6)-yl]sulfonyl}phenol] | – | – | – | – | – | – | Interleukin-6 Efficacy (%) (IL-6; IL-1β): 37%; IC50 (IL-6; IL-1β): 464 nM; Creatin Kinase Efficacy (%) (creatine kinase): 14%; EC50 (creatine kinase): 805 nM
9 | CCC1c2ccccc2-c2cc(-c3cccc4c3oc3ccccc34)ccc2N1S(=O)(=O)c1ccc(O)cc1 (stereo not drawn) [Example 31, 4-[(2-Dibenzo[b,d]furan-4-yl-6-ethylphenanthridin-5(6H)-yl)sulfonyl]phenol] | – | 254 nM | 218 to 220 °C | – | 108% | < 35% | –
10 | C[C@@H]1c2cc(F)ccc2-c2ccc(F)cc2N1S(=O)(=O)c1ccc(O)cc1O (single isomer, unassigned) [Example 104] | – | – | – | 9% | – | – | Emax (IL-6; Homo sapiens, HAECT1, IL-1β): 43%; IC50 (IL-6; Homo sapiens, HAECT1, IL-1β): 171 nM
11 | CC1c2ccccc2-c2ccccc2N1S(=O)(=O)c1ccc(O)cc1 (stereo not drawn) [Example 1, 4-[(6-Methylphenanthridin-5(6H)-yl)sulfonyl]phenol] | 1000 nM | 422 nM | 196 to 198 °C | 39% | 94% | – | –
12 | CC[C@@H](C)[C@H]1c2ccccc2-c2ccccc2N1S(=O)(=O)c1ccc(O)cc1 (relative stereo) [Example 22, 4-{[(S*)-6-[(R*)-1-methylpropyl]phenanthridin-5(6H)-yl]sulfonyl}phenol] | – | 163 nM | 115 to 118 °C | – | 96% | < 35% | –
13 | CCC1c2cc(F)ccc2-c2ccccc2N1S(=O)(=O)c1ccc(OC(=O)CC(C)(C)C)cc1 (stereo not drawn) [Example 53, 4-[(6-Ethyl-8-fluorophenanthridin-5(6H)-yl)sulfonyl]phenyl 3,3-dimethylbutanoate] | – | 764 nM | 128 °C | – | 76% | < 35% | –
14 | C[C@H]1c2ccccc2-c2ccc(Cl)cc2N1S(=O)(=O)c1ccc(O)cc1O [Example 125, 4-{[(6S)-3-Chlro-6-methylphenanthridin-5(6H)-yl]sulfonyl}b nzne-1,3-diol] | – | – | – | – | – | – | Interleukin-6 Efficacy (%) (IL-6; IL-1β): 94%; IC50 (IL-6; IL-1β): 54 nM; Creatin Kinase Efficacy (%) (creatine kinase): 22%
15 | Cc1ccc2c(c1)C(C)N(S(=O)(=O)c1ccc(O)cc1)c1ccccc1-2 (stereo not drawn) [Example 60, 4-[(6,8-Dimethylphenanthridin-5(6H)-yl)sulfonyl]phenol] | – | 257 nM | 111 to 113 °C | – | 95% | < 35% | –

Continued, in another order:

Row | EC50 (creatine kinase; Homo sapiens, HAECT1) | IC50 (ER/NF-κB) | melting point | Compound | Emax (creatine kinase; Homo sapiens, HAECT1) | Emax (ER/NF-κB) | Emax at 10 µM (creatine kinase; Homo sapiens, HAECT1) | also measured
16 | 152 nM | – | – | C[C@H]1c2ccccc2-c2ccc(F)cc2N1S(=O)(=O)c1cccc(O)c1 [Example 108, 3-{[(6S)-3-Fluoro-6-methylphenanthridin-5(6H)-yl]sulfonyl}phenol] | 11% | – | – | Emax (IL-6; Homo sapiens, HAECT1, IL-1β): 92%; IC50 (IL-6; Homo sapiens, HAECT1, IL-1β): 43 nM
17 | 750 nM | 1440 nM | 172 to 174 °C | CC1c2ccccc2-c2ccccc2N1S(=O)(=O)c1ccc(O)c(F)c1 (stereo not drawn) [Example 56, 2-Fluoro-4-[(6-methylphenanthridin-5(6H)-yl)sulfonyl]phenol] | 34% | 100% | – | –
18 | – | 433 nM | 186 to 188 °C | Cc1cc(S(=O)(=O)N2c3ccccc3-c3ccccc3C2C)ccc1O (stereo not drawn) [Example 5, 2-Methyl-4-[(6-methylphenanthridin-5(6H)-yl)sulfonyl]phenol] | – | 102% | < 35% | –
19 | – | > 10000 nM | 237 to 239 °C | O=S(=O)(c1ccc(O)c(Br)c1)N1c2ccc(Br)cc2-c2ccccc2C1c1ccccc1 (stereo not drawn) [Example 13, 2-Bromo-4-[(2-bromo-6-phenylphenanthridin-5(6H)-yl)sulfonyl]phenol] | – | – | < 35% | –
20 | – | 474 nM | 193 to 195 °C | Cc1cc(S(=O)(=O)N2c3ccc(Br)cc3-c3ccccc3C2C)ccc1O (stereo not drawn) [Example 6, 4-[(2-Bromo-6-methylphenanthridin-5(6H)-yl)sulfonyl]-2-methylphenol] | – | 92% | < 35% | –
21 | 3160 nM | 2280 nM | 187 to 189 °C | CC(C)(C)[C@H]1c2ccccc2-c2ccccc2N1S(=O)(=O)c1ccc(O)cc1 [Example 16, 4-{[(S)-6-tert-Butylphenanthridin-5(6H)-yl]sulfonyl}phenol] | 15% | 89% | – | –
22 | – | > 10000 nM | 258 °C | Cc1cc(S(=O)(=O)N2c3ccccc3-c3cccc(O)c3C2C)ccc1O (stereo not drawn) [Example 38, 5-[(4-Hydroxy-3-methylphenyl)sulfonyl]-6-methyl-5,6-dihydrophenanthridin-7-ol] | – | – | < 35% | –
23 | 420 nM | 40 nM | 176 to 178 °C | C[C@H]1c2ccccc2-c2ccccc2N1S(=O)(=O)c1ccc(O)cc1 (single isomer, unassigned) [Example 2] | 28% | 103% | – | –
24 | – | 16 nM | 187 to 189 °C | CC(C)(C)[C@@H]1c2ccccc2-c2ccccc2N1S(=O)(=O)c1ccc(O)cc1 [Example 15, 4-{[(R)-6-tert-Butylphenanthridin-5(6H)-yl]sulfonyl}phenol] | – | 99% | < 35% | –
25 | 77 nM | 56 nM | 197 to 200 °C | CCC1c2cc(F)ccc2-c2cc(C)ccc2N1S(=O)(=O)c1ccc(O)cc1 (stereo not drawn) [Example 51, 4-[(6-Ethyl-8-fluoro-2-methylphenanthridin-5(6H)-yl)sulfonyl]phenol] | 27% | 106% | – | –
26 | – | 672 nM | 178 to 180 °C | CCCCC1c2ccccc2-c2cc(Br)ccc2N1S(=O)(=O)c1ccc(O)cc1 (stereo not drawn) [Example 8, 4-[(2-Bromo-6-butylphenanthridin-5(6H)-yl)sulfonyl]phenol] | – | 89% | < 35% | –
27 | – | 470 nM | 149 to 151 °C | CCCCC1c2ccccc2-c2ccccc2N1S(=O)(=O)c1ccc(O)cc1 (stereo not drawn) [Example 7, 4-[(6-Butylphenanthridin-5(6H)-yl)sulfonyl]phenol] | – | 7% | < 35% | –
28 | 85 nM | – | – | C[C@H]1c2cc(F)ccc2-c2ccc(F)cc2N1S(=O)(=O)c1ccc(O)cc1O (single isomer, unassigned) [Example 103] | 9% | – | – | Emax (IL-6; Homo sapiens, HAECT1, IL-1β): 141%; IC50 (IL-6; Homo sapiens, HAECT1, IL-1β): 47 nM
29 | 110 nM | – | – | C[C@@H]1c2ccccc2-c2ccc(F)cc2N1S(=O)(=O)c1cccc(O)c1 [Example 107, 3-{[(6R)-3-Fluoro-6-methylphenanthridin-5(6H)-yl]sulfonyl}phenol] | 20% | – | – | Emax (IL-6; Homo sapiens, HAECT1, IL-1β): 79%; IC50 (IL-6; Homo sapiens, HAECT1, IL-1β): 1330 nM

— patent publication US6894061B2, “Substituted dihydrophenanthridinesulfonamides” (Wyeth, priority 2002, dated 2005)
